The values that follow come from ChEMBL document CHEMBL3044665, “Adzuki bean (Vigna angularis) responses to post-emergence herbicides” (Crop Prot, 2006).

Common to all, as to assay type: organism-based
Series [1] relates to Phaseolus vulgaris. Put plainly: Phytotoxicity in Phaseolus vulgaris (white navy bean) assessed as decrease in crop yield relative to untreated control. Particulars: in vivo.
Series [2] relates to Phaseolus vulgaris. Put plainly: Phytotoxicity in Phaseolus vulgaris (cranberry bean) assessed as visual injury at 1080 g ai/ha applied as spray during post emergence after 7 days relative to untreated control. To be noted: in vivo, other, 168 h.
Series [3] has as its system Vigna angularis. Description: Phytotoxicity in Vigna angularis (adzuki bean) assessed as seed moisture content at 2160 g ai/ha after 42 days applied as spray (reference value: 13.9%). To be noted: in vivo, other, 1008 h, at 2160 g/ha.
Series [4] has as its system Vigna angularis. Description: Phytotoxicity in Vigna angularis (adzuki bean) assessed as seed moisture content at 1080 g ai/ha after 42 days applied as spray (reference value: 13.9%). Particulars: in vivo, other, 1008 h, at 1080 g/ha.
Series [5] relates to Phaseolus vulgaris. Put plainly: Phytotoxicity in Phaseolus vulgaris (dry bean) assessed as visual injury at 1080 g ai/ha applied as spray during post emergence relative to untreated control. To be noted: in vivo, other.
For series [6], the system named is Phaseolus vulgaris. Put plainly: Phytotoxicity in Phaseolus vulgaris (black bean) assessed as visual injury at 1080 g ai/ha applied as spray during post emergence after 7 days relative to untreated control. To be noted: in vivo, other, 168 h.
In series [7] the test system is Vigna angularis. Description: Phytotoxicity in Vigna angularis (adzuki bean) assessed as decrease in crop yield at 2160 g ai/ha measured during post emergence applied as spray relative to untreated control. Particulars: in vivo, other.
Series [8] deals with Vigna angularis. Description: Phytotoxicity in Vigna angularis (adzuki bean) assessed as decrease in plant height at 2160 g ai/ha after 28 days applied as spray relative to untreated control. Also noted: scale not given: the % may be the effect or the level left. Particulars: in vivo, other, 672 h.
The test system of series [9] is Vigna angularis. Description: Phytotoxicity in Vigna angularis (adzuki bean) assessed as decrease in plant height at 1080 g ai/ha after 28 days applied as spray relative to untreated control. Also noted: scale not given: the % may be the effect or the level left. Particulars: in vivo, other, 672 h.
Series [10] concerns Vigna angularis. Put plainly: Phytotoxicity in Vigna angularis (adzuki bean) assessed as visual injury at 2160 g ai/ha after 28 days applied as spray relative to untreated control. To be noted: in vivo, other, 672 h.
For series [11], the system named is Vigna angularis. Description: Phytotoxicity in Vigna angularis (adzuki bean) assessed as visual injury at 2160 g ai/ha after 14 days applied as spray relative to untreated control. To be noted: in vivo, other, 336 h.
The subject of series [12] is Vigna angularis. Put plainly: Phytotoxicity in Vigna angularis (adzuki bean) assessed as visual injury at 2160 g ai/ha after 7 days applied as spray relative to untreated control. To be noted: in vivo, other, 168 h.
The subject of series [13] is Vigna angularis. Description: Phytotoxicity in Vigna angularis (adzuki bean) assessed as visual injury at 1080 g ai/ha after 28 days applied as spray relative to untreated control. To be noted: in vivo, other, 672 h.
In series [14] the test system is Vigna angularis. Put plainly: Phytotoxicity in Vigna angularis (adzuki bean) assessed as visual injury at 1080 g ai/ha after 14 days applied as spray relative to untreated control. To be noted: in vivo, other, 336 h.
Series [15] relates to Vigna angularis. Description: Phytotoxicity in Vigna angularis (adzuki bean) assessed as visual injury at 1080 g ai/ha after 7 days applied as spray relative to untreated control. Particulars: in vivo, other, 168 h.
Series [16] has as its system Vigna angularis. Put plainly: Phytotoxicity in Vigna angularis (adzuki bean) assessed as decrease in crop yield at 1080 g ai/ha measured during post emergence applied as spray relative to untreated control. To be noted: in vivo, other.
Series [17] deals with Vigna angularis. Put plainly: Phytotoxicity in Vigna angularis (adzuki bean) assessed as decrease in shoot dry weight at 2160 g ai/ha after 42 days applied as spray relative to untreated control. Also noted: scale not given: the % may be the effect or the level left. Particulars: in vivo, other, 1008 h.
Series [18] relates to Vigna angularis. Put plainly: Phytotoxicity in Vigna angularis (adzuki bean) assessed as decrease in shoot dry weight at 1080 g ai/ha after 42 days applied as spray relative to untreated control. Also noted: scale not given: the % may be the effect or the level left. To be noted: in vivo, other, 1008 h.
For series [19], the system named is Vigna angularis. Put plainly: Phytotoxicity in Vigna angularis (adzuki bean) assessed as crop yield at 480 g ai/ha measured during post emergence applied as spray (reference value: 2.05 t/ha). Particulars: in vivo, other.
The test system of series [20] is Vigna angularis. Description: Phytotoxicity in Vigna angularis (adzuki bean) assessed as seed moisture content at 480 g ai/ha after 42 days applied as spray (reference value: 13.9%). To be noted: in vivo, other, 1008 h, at 480 g/ha.
Series [21] deals with Vigna angularis. Description: Phytotoxicity in Vigna angularis (adzuki bean) assessed as seed moisture content at 240 g ai/ha after 42 days applied as spray (reference value: 13.9%). Particulars: in vivo, other, 1008 h, at 240 g/ha.
The subject of series [22] is Vigna angularis. Description: Phytotoxicity in Vigna angularis (adzuki bean) assessed as plant height at 480 g ai/ha after 28 days applied as spray (RVB = 34 cm). To be noted: in vivo, other, 672 h.
Series [23] concerns Vigna angularis. Put plainly: Phytotoxicity in Vigna angularis (adzuki bean) assessed as plant height at 240 g ai/ha after 28 days applied as spray (RVB = 34 cm). Particulars: in vivo, other, 672 h.
Series [24] deals with Vigna angularis. Description: Phytotoxicity in Vigna angularis (adzuki bean) assessed as visual injury at 480 g ai/ha after 28 days applied as spray relative to untreated control. To be noted: in vivo, other, 672 h.
In series [25] the test system is Vigna angularis. Put plainly: Phytotoxicity in Vigna angularis (adzuki bean) assessed as visual injury at 480 g ai/ha after 14 days applied as spray relative to untreated control. Particulars: in vivo, other, 336 h.
For series [26], the system named is Vigna angularis. Description: Phytotoxicity in Vigna angularis (adzuki bean) assessed as visual injury at 480 g ai/ha after 7 days applied as spray relative to untreated control. Particulars: in vivo, other, 168 h.
The subject of series [27] is Vigna angularis. Description: Phytotoxicity in Vigna angularis (adzuki bean) assessed as visual injury at 240 g ai/ha after 28 days applied as spray relative to untreated control. Particulars: in vivo, other, 672 h.
Series [28] relates to Vigna angularis. Description: Phytotoxicity in Vigna angularis (adzuki bean) assessed as visual injury at 240 g ai/ha after 14 days applied as spray relative to untreated control. Particulars: in vivo, other, 336 h.
Series [29] has as its system Vigna angularis. Put plainly: Phytotoxicity in Vigna angularis (adzuki bean) assessed as visual injury at 240 g ai/ha after 7 days applied as spray relative to untreated control. To be noted: in vivo, other, 168 h.
The test system of series [30] is Vigna angularis. Put plainly: Phytotoxicity in Vigna angularis (adzuki bean) assessed as crop yield at 240 g ai/ha measured during post-emergence applied as spray (reference value: 2.05 t/ha). Particulars: in vivo, other.
The subject of series [31] is Vigna angularis. Put plainly: Phytotoxicity in Vigna angularis (adzuki bean) assessed as decrease in shoot dry weight at 480 g ai/ha after 42 days applied as spray relative to untreated control. Also noted: scale not given: the % may be the effect or the level left. To be noted: in vivo, other, 1008 h.
The subject of series [32] is Vigna angularis. Description: Phytotoxicity in Vigna angularis (adzuki bean) assessed as shoot dry weight at 240 g ai/ha measured per 1 m row after 42 days applied as spray (reference value: 153 g). Particulars: in vivo, other, 1008 h.

As to `CC(C)N1C(=O)c2ccccc2NS1(=O)=O` [BENTAZON], the Crop_yield entry is listed as “<= 21%” with Phaseolus vulgaris [1], 56% in the series with Vigna angularis [7] and 48% in the series with Vigna angularis [16]. The Activity in the series on Phaseolus vulgaris [2] is given as below 2%; with Vigna angularis [3] it was 15.3%; in the series with Vigna angularis [4] it was 15%; in the series with Phaseolus vulgaris [5], 3%; in the series on Phaseolus vulgaris [6], below 3%; in the series with Vigna angularis [8], 43%. The Activity in the series with Vigna angularis [9] stood at 37%; with Vigna angularis [10], 38.1%; in the series with Vigna angularis [11], 43.5%; in the series on Vigna angularis [12], 36.4%; with Vigna angularis [13], 29.8%; with Vigna angularis [14], 33.2%. The Activity with Vigna angularis [15] was found to be 29.5%; in the series on Vigna angularis [17] it was 65%; with Vigna angularis [18], 60%.

Take `CS(=O)(=O)NC(=O)c1cc(Oc2ccc(C(F)(F)F)cc2Cl)ccc1[N+](=O)[O-]` [FOMESAFEN]: the Crop_yield in the series with Vigna angularis [19] came out at 1.81 tons/ha; with Vigna angularis [30], 1.88 tons/ha. Moreover, the Activity is recorded as 14.4% in the series with Vigna angularis [20]; 14.2% in the series with Vigna angularis [21]; 31.3 cm in the series on Vigna angularis [22]; 32.4 cm with Vigna angularis [23]; 2.6% in the series with Vigna angularis [24]; 7.2% in the series with Vigna angularis [25]. For the same compound, the Activity stood at 9.8% with Vigna angularis [26]; 1.7% with Vigna angularis [27]; 4.6% in the series on Vigna angularis [28]; 6.8% in the series with Vigna angularis [29]; 16% in the series with Vigna angularis [31]; 140 g in the series with Vigna angularis [32].
